Measurements: patent US5877199A, “Heterocyclic compounds, their preparation and their therapeutic use” (priority 1994, dated 1999)

Test system: heart receptors
Assay: not given
Conditions: Riker and Wescoe 1951; cited from earlier work

Q: With `CC[N+](CC)(CC)CCOc1cccc(OCC[N+](CC)(CC)CC)c1OCC[N+](CC)(CC)CC` [gallamine] as the compound, how does the “action on heart receptors” value read?
A: negative action on heart receptors

Same assay, conditions: subsequently established; cited from earlier work

Q: Which “competitive antagonism for acetylcholine” value does the source give for `CC[N+](CC)(CC)CCOc1cccc(OCC[N+](CC)(CC)CC)c1OCC[N+](CC)(CC)CC` [gallamine] here?
A: not a competitive antagonist for acetylcholine

Test system: M2 muscarinic receptors in the heart
Assay: not given
Conditions: Tucek et al. 1993; cited from earlier work

Q: Which “effect on affinity of M2 muscarinic receptors for NMS” value does the source give for `C=CC[N@@+]12CC[C@@]34c5ccccc5N5/C=C6/[C@H]7C[C@H]8[C@@]9(CC[N@@+]8(CC=C)C/C7=C/CO)c7ccccc7N(/C=C(/[C@@H](C[C@@H]31)/C(=C\CO)C2)[C@H]54)[C@@H]69` [alcuronium] here?
A: allosterically increases the affinity of M2 muscarinic receptors in the heart for NMS

Test system: muscarinic receptors
Assay: not given
Conditions: reported; cited from earlier work

Q: With `COc1cc2c3cc1Oc1cc(ccc1O)C[C@@H]1c4c(cc(OC)c(O)c4Oc4ccc(cc4)C[C@@H]3N(C)CC2)CC[N+]1(C)C` [Tubocurarine] as the compound, how does the “allosteric effects on antagonist binding” value read?
A: negative allosteric effects on antagonist binding

Q: For batrachotoxin, which “allosteric effects on antagonist binding” value is on record?
A: negative allosteric effects on antagonist binding

Target: T1, m1 muscarinic receptors (Homo sapiens, UniProt P11229)
T1 construct: expressed in transfected cells; host or cells: CHO (Chinese Hamster Ovary) cells, membranes
T1 sequence (P11229 1-460): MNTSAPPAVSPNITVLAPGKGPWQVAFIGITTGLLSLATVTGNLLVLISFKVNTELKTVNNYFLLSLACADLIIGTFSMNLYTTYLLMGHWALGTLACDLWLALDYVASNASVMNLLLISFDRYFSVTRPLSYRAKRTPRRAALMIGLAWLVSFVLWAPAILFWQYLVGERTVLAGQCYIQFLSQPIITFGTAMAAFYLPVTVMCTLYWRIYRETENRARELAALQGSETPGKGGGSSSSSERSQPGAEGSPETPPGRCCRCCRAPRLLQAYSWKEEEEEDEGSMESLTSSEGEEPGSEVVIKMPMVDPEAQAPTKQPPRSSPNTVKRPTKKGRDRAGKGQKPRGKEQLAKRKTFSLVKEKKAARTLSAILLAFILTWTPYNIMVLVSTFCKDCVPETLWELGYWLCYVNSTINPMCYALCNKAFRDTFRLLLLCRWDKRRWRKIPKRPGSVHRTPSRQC
Assay: Effect on ACh binding: ACh inhibition of 3H-NMS binding (indirect assay) on CHO cell membranes
Conditions: tested at 3 μg/ml; 0.15 nM 3H-NMS, 30 μM ACh, 0.2 mM GTP, pH 7.4, 30° C., two hours
Excerpt: The compounds of the present invention may be assayed for allosteric activity at m1 muscarinic receptors as described below, although the assays we describe are not necessarily exhaustive, and other assays may be employed, as desired, to establish allosterism.
A suitable cell line is CHO (Chinese Hamster Ovary), which are readily engineered to express only one receptor sub-type.
To obtain the large amount of cell membranes required, plates of 530 cm^2 culture area were used. CHO cells which express m1, m2, m3 and m4 receptors were grown separately in MEM alpha medium containing 10% newborn calf serum and antibiotics. When cells reached confluence, they were washed twice with 10 ml of 20 mM HEPES containing 10 mM EDTA (pH 7.4), scraped into the same buffer and homogenized using a Polytron (trademark) homogenizer (setting 5-6 for 5 sec×2). Membrane pellets were obtained by centrifugation (40000×g, 10 min, 4° C.) and resuspended in 20 mM HEPES-0.1 mM EDTA (pH 7.4). Centrifugation and resuspension were repeated twice to wash the cell membranes. After measurement of membrane protein, the membranes (1 or 2 mg protein/ml) were stored at -70° C.
While the direct assay measures ACh (=acetylcholine) binding only to the high affinity state, the indirect assay measures effects only at the low affinity state. This is achieved by including 0.2 mM GTP in the assay. In this assay a fixed concentration of ^3 H-NMS (roughly the Kd value) is incubated in the absence and presence of a fixed concentration of ACh (at about the IC50 value) and the effects of three concentrations of test agent are measured, again in the absence and presence of ACh.
Calculating the effects on ^3 H-NMS binding alone is as follows: binding in the presence of the agent is expressed as a percentage of binding in its absence and, if the effect is inhibitory, an IC50 is estimated graphically. The assay also contains a single high concentration of ^3 H-NMS (4 nM, about 30 times the Kd) which provides an estimate of Bmax (i.e. maximum binding).
Expressing the effect on cold ACh binding will be explained with reference to FIGS. 1a, b and c. These figures show theoretical data and the effects of the transformations described below. In FIGS. 1a and 1b ^3 H-NMS and cold ACh are present at their Kd concentrations; in FIG. 1a the agent has a negative allosteric effect on ^3 H-NMS, while in FIG. 1b it has a positive allosteric effect on ^3 H-NMS. The left panels show the amount of ^3 H-NMS specifically bound in the assay. If the affinity of ACh is reduced by the test agent, as shown in the top panels of FIGS. 1a and 1b, the inhibition by ACh will decrease, but the counts recovered will also depend on the effect of the agent on ^3 H-NMS binding alone. To calculate the effect on ACh binding the inhibitory effect of ACh is first calculated as a percent of its own control in the absence of ACh. Next it is assumed that fractional inhibition is the same as tractional occupancy, and inhibition in the presence of agent is expressed as a percentage of inhibition in the absence of agent. The effects of these transformations are shown in the centre panels. Expressing inhibition by ACh in the presence of agent as a percentage of inhibition in the absence of agent allows the effect of the agent on cold ACh binding to be seen on the same scale as the effect on ^3 H-NMS and ^3 H-ACh binding and is generally preferred.
If the concentration of ^3 H-NMS used in the indirect assay is around the Kd value or less, the transformation described above provides a qualitative and semi-quantitative measure of the agent's effect. If a higher concentration of ^3 H-NMS is used, or if the agent has a positive allosteric effect on ^3 H-NMS, then the results of this transformation may be misleading. […] It is assumed that ACh binds to a single affinity state i.e. that its inhibition curve has a slope of 1, and so an IC50 is calculated from the percentage inhibition of control binding. […]

Q: With `CSc1c(CC(=O)O)cc(C(C)C)c2c3ccccc3n(Cc3ccccc3)c12` [Example 190, (9-Benzyl-4-isopropyl-1-methylthiocarbazol-2-yl)acetic Acid] as the compound, how does the “Effect on ACh Binding” value read?
A: 4.78

Q: With `Cc1cc(CC(=O)O)c([S+](C)[O-])c2c1c1ccccc1n2Cc1ccccc1` (stereo not drawn) [Example 200, (9-Benzyl-1-methylsulfinyl-4-methylcarbazol-2-yl)acetic Acid] as the compound, how does the “Effect on ACh Binding” value read?
A: 3.59

Q: Which “Effect on ACh Binding” value does the source give for `Cc1cc(CC(=O)O)c(S(C)(=O)=O)c2c1c1ccccc1n2Cc1ccccc1` [Example 202, (9-Benzyl-1-methylsulfonyl-4-methylcarbazol-2-yl)acetic Acid] here?
A: 2.66

Q: With `Cc1cc(CC(=O)O)c(SCc2ccccc2)c2c1c1ccccc1n2C` [Example 206, (1-Benzylthio-4,9-dimethylcarbazol-2-yl)acetic Acid] as the compound, how does the “Effect on ACh Binding” value read?
A: 2.13

Q: For `CCCSc1c(CC(=O)O)cc(C)c2c3ccccc3n(C)c12` [Example 210, (4,9-Dimethyl-1-propylthiocarbazol-2-yl)acetic Acid], which “Effect on ACh Binding” value is on record?
A: 2.03

Q: With `CSc1c(CC(=O)O)cc(C)c2c3ccccc3n(CCc3ccccc3)c12` [Example 212, [4-Methyl-1-methylthio-9-(2-phenethyl)carbazol-2-yl]acetic Acid] as the compound, how does the “Effect on ACh Binding” value read?
A: 4.93

Q: With `CSc1c(CC(=O)O)cc(C)c2c3ccccc3n(CCCc3ccccc3)c12` [Example 214, [4-Methyl-1-methylthio-9-(3-phenylpropyl)carbazol-2-yl]acetic Acid] as the compound, how does the “Effect on ACh Binding” value read?
A: 4.34

Q: With `CCCSc1c(CC(=O)O)cc(C)c2c3ccccc3n(Cc3ccccc3)c12` [Example 217, (9-Benzyl-4-methyl-1-n-propylthiocarbazol-2-yl)acetic Acid] as the compound, how does the “Effect on ACh Binding” value read?
A: 3.99

Q: With `Cc1cc(CC(=O)O)c(SC(C)C)c2c1c1ccccc1n2Cc1ccccc1` [Example 218, (9-Benzyl-4-methyl-1-i-propylthiocarbazol-2-yl)acetic Acid] as the compound, how does the “Effect on ACh Binding” value read?
A: 4.91

Q: Which “Effect on ACh Binding” value does the source give for `CSc1c(CC(=O)O)cc(C)c2c3ccccc3n(CCc3cccc(Cl)c3)c12` [Example 229, {9-[2-(3-Chlorophenyl)ethyl]-4-methyl-1-methylthiocarbazol-2-yl}acetic Acid] here?
A: 5.79

Q: Which “Effect on ACh Binding” value does the source give for `CSc1c(CC(=O)O)cc(C(F)(F)F)c2c3ccccc3n(Cc3ccccc3)c12` [Example 231, (9-Benzyl-1-methylthio-4-trifluoromethyl carbazol-2-yl)acetic Acid] here?
A: 3.78

Q: For `CSc1c(CC(=O)O)ccc2c1c1ccccc1n2Cc1ccccc1` [Example 233, (9-Benzyl-4-methylthiocarbazol-3-yl)acetic Acid], which “Effect on ACh Binding” value is on record?
A: 2.26

Q: With `CC(C)Sc1c(CC(=O)O)cc(C(C)C)c2c3ccccc3n(Cc3ccccc3)c12` [Example 235, (9-Benzyl-4-isopropyl-1-isopropylthiocarbazol-2-yl)acetic Acid] as the compound, how does the “Effect on ACh Binding” value read?
A: 2.82
